The text below walks through data of patent publication US9539252B2, “Piperazine-substituted benzothiophene derivatives as antipsychotic agents” (OTSUKA PHARMACEUTICAL CO., LTD., priority 2011, dated 2017).

A short description of this data set: Solubility in oil (sesame oil, benzyl benzoate), visual observation. The conditions noted are these: oil or lipid, thermodynamic from solid.

`O=C(OCN1C(=O)CCc2ccc(OCCCCN3CCN(c4cccc5sccc45)CC3)cc21)c1ccc2occc2c1` [Example 128, benzofuran-5-carboxylic acid 7-[4-(4-benzo[b]thiophen-4-ylpiperazin-1-yl)butoxy]-2-oxo-3,4-dihydro-2H-quinolin-1-ylmethyl ester] gave a solubility (benzyl benzoate) above 100 mg/mL.
The same measure, in the same setting: then `CONC(=O)OCn1c(=O)ccc2ccc(OCCCCN3CCN(c4cccc5sccc45)CC3)cc21` [Example 129, N-methoxycarbamic acid (7-{4-[4-(benzo[b]thiophen-4-yl)piperazin-1-yl]butoxy}-2-oxo-2H-quinolin-1-yl)methyl], with above 100 mg/mL; and `O=C(OCn1c(=O)ccc2ccc(OCCCCN3CCN(c4cccc5sccc45)CC3)cc21)C1CCOCC1` [Example 130, tetrahydropyran-4-carboxylic acid 7-[4-(4-benzo[b]thiophen-4-ylpiperazin-1-yl)butoxy]-2-oxo-2H-quinolin-1-ylmethyl ester], with above 100 mg/mL; and `O=C(OCN1C(=O)CCc2ccc(OCCCCN3CCN(c4cccc5sccc45)CC3)cc21)c1cccs1` [Example 131, thiophene-2-carboxylic acid 7-[4-(4-benzo[b]thiophen-4-ylpiperazin-1-yl)butoxy]-2-oxo-3,4-dihydro-2H-quinolin-1-ylmethyl ester], with above 100 mg/mL.
For `O=C(OCN1C(=O)CCc2ccc(OCCCCN3CCN(c4cccc5sccc45)CC3)cc21)c1cccnc1` [Example 132, nicotinic acid 7-[4-(4-benzo[b]thiophen-4-ylpiperazin-1-yl)butoxy]-2-oxo-3,4-dihydro-2H-quinolin-1-ylmethyl ester], the solubility (benzyl benzoate) was above 100 mg/mL.
Consider `CCCCCCCCCCCCOC(=O)OCn1c(=O)ccc2ccc(OCCCCN3CCN(c4cccc5sccc45)CC3)cc21` [Example 134, carbonic acid 7-[4-(4-benzo[b]thiophen-4-ylpiperazin-1-yl)butoxy]-2-oxo-2H-quinolin-1-ylmethyl ester dodecyl ester], for which the solubility reads like this: (benzyl benzoate) above 100 mg/mL; (sesame oil) above 100 mg/mL.
In turn, `CCCCCCCCCCOC(=O)OCn1c(=O)ccc2ccc(OCCCCN3CCN(c4cccc5sccc45)CC3)cc21` [Example 135, carbonic acid 7-[4-(4-benzo[b]thiophen-4-ylpiperazin-1-yl)butoxy]-2-oxo-2H-quinolin-1-ylmethyl ester decyl ester] had a solubility (benzyl benzoate) above 100 mg/mL and a solubility (sesame oil) above 100 mg/mL.
The compound `O=C(OCn1c(=O)ccc2ccc(OCCCCN3CCN(c4cccc5sccc45)CC3)cc21)C1CCC1` [Example 136, cyclobutanecarboxylic acid 7-[4-(4-benzo[b]thiophen-4-ylpiperazin-1-yl)butoxy]-2-oxo-2H-quinolin-1-ylmethyl ester] registered a solubility (benzyl benzoate) above 100 mg/mL.
On the same count and under the same terms, then `O=C(OCn1c(=O)ccc2ccc(OCCCCN3CCN(c4cccc5sccc45)CC3)cc21)c1ccc2occc2c1` [Example 137, benzofuran-5-carboxylic acid 7-[4-(4-benzo[b]thiophen-4-ylpiperazin-1-yl)butoxy]-2-oxo-2H-quinolin-1-ylmethyl ester], with above 100 mg/mL; and `O=C(NCCC(F)(F)F)OCn1c(=O)ccc2ccc(OCCCCN3CCN(c4cccc5sccc45)CC3)cc21` [Example 139, N-(3,3,3-trifluoropropyl)carbamic acid 7-[4-(4-benzo[b]thiophen-4-ylpiperazin-1-yl)butoxy]-2-oxo-2H-quinolin-1-ylmethyl ester], with above 100 mg/mL.
Where the note is “benzyl benzoate”, `O=C(OC/C=C/c1ccccc1)OCn1c(=O)ccc2ccc(OCCCCN3CCN(c4cccc5sccc45)CC3)cc21` [Example 140, carbonic acid 7-[4-(4-benzo[b]thiophen-4-ylpiperazin-1-yl)butoxy]-2-oxo-2H-quinolin-1-ylmethyl ester (E)-3-phenyl-allyl ester] registered a solubility above 100 mg/mL.
